Measured values published in US12227488B2, “Small molecule degraders of Helios and methods of use” (DANA-FARBER CANCER INSTITUTE, INC., priority 2018, dated 2025).

How the values were obtained:
CRBN and Helios (IKZF2) = biological target: T1, CRBN and Helios (IKZF2) (Homo sapiens, UniProt Q96SW2+Q9UKS7); test: TR-FRET dimerization assay (CRBN-IKZF2 ternary complex formation); type: binding; conditions: n=1
T1 construct: His (N); Strep (N)
Method: A focused library of imide analogs was synthesized and assessed for their ability to induce dimerization between CRBN and Helios in a time-resolved fluorescence energy transfer (TR-FRET) assay (FIG. 1A).
Prior to TR-FRET measurements being conducted, the reactions were incubated for 15 min at rt. […] The TR-FRET signal of each data point was extracted by calculating the 520/490 nm ratios. Data from single measurements (n=1), each calculated as an average of at least three technical replicates per well per experiment are presented in Table 1.
BODIPY-labeled CRBN in complex with Damage Specific DNA Binding Protein 1 (DDB1) harboring an internal deletion of the flexible BPB propeller (DDB1AB-CRBN) and in vitro biotinylated IKZF2 were treated with increasing concentrations of the indicated compounds in the presence of tracer amounts of Terbium-Streptavidin (Tb-SA). Compound-induced recruitment of IKZF2 to CRBN was quantified following the 520/490 TR-FRET ratio using a PHERAstar® plate reader (BMG) utilizing two synchronized PMTs to reduce background.

IKZF2 = test: Cellular degradation assay, eGFP-IKZF2Δ fusion with mCherry reporter in Flp-In 293 cells; type: cell-based; conditions: for IKZF2 GFP/RFP Relative Abundance: 5 h incubation, n=1; for DC50: half degradation at 5 h (DC50,5 h), triplicate, 11 point dose response
Method: (§1) IKZF1Δ, IKZF2Δ, GSPT1 and SALL4 ZnF1-2 were subcloned into mammalian pcDNA5/FRT Vector (Ampicillin and Hygromycin B resistant) modified to contain MCS-eGFP-P2A-mCherry. […] Following 2-3 passage cycle, FACS (FACSAria™ II, BD) was used to enrich for cells expressing eGFP and mCherry. Cells stably expressing the IKZF1Δ, IKZF2Δ, GSPT1 or SALL4 Znf1-2 GFP fusions with mCherry reporter were seeded at 30-50% confluency in 384-well plates with 50 μL FluoroBrite™ DMEM media (Thermo Fisher Scientific, A18967) containing 10% FBS per well a day before compound treatment. Compound titrations were dispensed using a D300e Digital Dispenser (HP), normalized to 0.5% DMSO, and incubated with cells for 5 hours.
(§2) The resulting images were analyzed using CellProfiler™. A series of image analysis steps (‘image analysis pipeline’) was constructed. First, the red and green channels were aligned and cropped to target the middle of each well (to avoid analysis of heavily clumped cells at the edges), and a background illumination function was calculated for both red and green channels of each well individually and subtracted to correct for illumination variations across the 384-well plate from various sources of error. An additional step was then applied to the green channel to suppress the analysis of large auto fluorescent artifacts and enhance the analysis of cell specific fluorescence by way of selecting for objects under a given size, 30 A.U., and with a given shape, speckles. mCherry-positive cells were then identified in the red channel filtering for objects between 8-60 pixels in diameter and using intensity to distinguish between clumped objects. The green channel was then segmented into GFP positive and negative areas and objects were labeled as GFP positive if at least 40% of it overlapped with a GFP positive area. The fraction of GFP-positive cells/mCherry-positive cells in each well was then calculated, and the green and red images were rescaled for visualization.
(§3) The degradation assay was performed as described above. […] Degradation was measured after 5 h of compound treatment and the concentrations that lead to half degradation at 5 h (DC50,5 h) were calculated using the nonlinear fit variable slope model (GraphPad Software).

GSPT1 = GSPT1 (Homo sapiens, UniProt P15170+Q96SW2); test: Cellular degradation assay, eGFP-GSPT1 fusion with mCherry reporter in Flp-In 293 cells; type: cell-based; set-up: expressed in transfected cells; host or cells: Flp-In 293; conditions: for GSPT1 GFP/RFP Relative Abundance: 5 h incubation, n=1; for DC50: half degradation at 5 h (DC50,5 h), triplicate, 11 point dose response
Chain of GSPT1 (P15170 whole entry, the tested form may be a part): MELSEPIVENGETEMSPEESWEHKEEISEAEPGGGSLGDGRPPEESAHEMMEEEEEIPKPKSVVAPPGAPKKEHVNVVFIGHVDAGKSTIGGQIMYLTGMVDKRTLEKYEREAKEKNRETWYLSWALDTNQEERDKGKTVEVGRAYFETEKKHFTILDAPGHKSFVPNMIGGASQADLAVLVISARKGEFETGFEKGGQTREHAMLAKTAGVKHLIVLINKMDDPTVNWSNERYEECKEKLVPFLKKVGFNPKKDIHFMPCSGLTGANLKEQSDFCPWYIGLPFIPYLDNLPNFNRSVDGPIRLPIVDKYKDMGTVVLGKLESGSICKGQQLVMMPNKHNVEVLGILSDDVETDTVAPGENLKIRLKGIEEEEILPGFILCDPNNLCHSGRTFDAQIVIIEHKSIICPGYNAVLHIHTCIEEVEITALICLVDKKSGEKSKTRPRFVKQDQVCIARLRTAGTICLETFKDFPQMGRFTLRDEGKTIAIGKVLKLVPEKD
Chain of GSPT1 (Q96SW2 whole entry, the tested form may be a part): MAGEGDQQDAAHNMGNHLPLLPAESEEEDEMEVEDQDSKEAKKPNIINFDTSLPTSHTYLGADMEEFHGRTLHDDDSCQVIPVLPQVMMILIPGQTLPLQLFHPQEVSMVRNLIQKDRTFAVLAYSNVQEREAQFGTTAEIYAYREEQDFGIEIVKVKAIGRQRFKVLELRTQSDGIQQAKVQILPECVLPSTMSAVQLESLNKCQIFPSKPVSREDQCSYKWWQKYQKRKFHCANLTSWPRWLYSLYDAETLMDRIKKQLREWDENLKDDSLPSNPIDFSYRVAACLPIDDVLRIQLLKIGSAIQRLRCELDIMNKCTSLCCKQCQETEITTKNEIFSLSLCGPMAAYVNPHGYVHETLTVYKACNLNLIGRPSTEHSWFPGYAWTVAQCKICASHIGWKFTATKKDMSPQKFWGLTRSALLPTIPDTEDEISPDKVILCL
Chain of GSPT1 (Q16531 whole entry partner, the tested form may be a part): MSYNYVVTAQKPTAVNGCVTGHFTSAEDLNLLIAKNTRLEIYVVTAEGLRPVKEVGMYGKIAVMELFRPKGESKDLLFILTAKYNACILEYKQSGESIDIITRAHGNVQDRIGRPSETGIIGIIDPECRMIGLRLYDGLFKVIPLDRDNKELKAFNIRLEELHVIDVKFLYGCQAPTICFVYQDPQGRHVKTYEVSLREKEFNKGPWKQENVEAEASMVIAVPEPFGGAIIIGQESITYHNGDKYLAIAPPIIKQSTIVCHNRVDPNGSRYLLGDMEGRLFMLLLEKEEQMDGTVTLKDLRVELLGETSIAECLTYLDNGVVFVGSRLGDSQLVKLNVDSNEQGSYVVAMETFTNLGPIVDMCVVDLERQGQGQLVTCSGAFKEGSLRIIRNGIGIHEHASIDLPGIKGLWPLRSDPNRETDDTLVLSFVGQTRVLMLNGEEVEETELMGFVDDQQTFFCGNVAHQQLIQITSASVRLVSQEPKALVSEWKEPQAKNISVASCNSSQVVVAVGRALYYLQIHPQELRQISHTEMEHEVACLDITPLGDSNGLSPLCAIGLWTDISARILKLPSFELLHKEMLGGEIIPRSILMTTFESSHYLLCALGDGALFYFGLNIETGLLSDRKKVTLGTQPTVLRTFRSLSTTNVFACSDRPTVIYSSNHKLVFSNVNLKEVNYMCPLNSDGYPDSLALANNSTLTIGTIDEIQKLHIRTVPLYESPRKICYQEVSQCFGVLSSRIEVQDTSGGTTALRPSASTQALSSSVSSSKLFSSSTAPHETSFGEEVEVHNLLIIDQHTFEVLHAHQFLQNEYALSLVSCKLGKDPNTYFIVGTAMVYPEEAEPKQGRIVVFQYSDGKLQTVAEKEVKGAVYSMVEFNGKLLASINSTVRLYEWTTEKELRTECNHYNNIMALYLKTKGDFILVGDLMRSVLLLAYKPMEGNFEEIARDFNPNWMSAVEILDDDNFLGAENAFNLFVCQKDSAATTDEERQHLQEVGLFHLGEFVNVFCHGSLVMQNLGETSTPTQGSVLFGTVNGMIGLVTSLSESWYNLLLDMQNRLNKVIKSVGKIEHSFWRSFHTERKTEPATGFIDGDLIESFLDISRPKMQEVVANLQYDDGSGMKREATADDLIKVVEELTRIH
Method: as §1, §2, §3

IKZF1 = biological target: T2, IKZF1 (Homo sapiens, UniProt Q13422); test: Cellular degradation assay, eGFP-IKZF1Δ fusion with mCherry reporter in Flp-In 293 cells; type: cell-based; conditions: for IKZF1 GFP/RFP Relative Abundance: 5 h incubation, n=1; for DC50: half degradation at 5 h (DC50,5 h), triplicate, 11 point dose response
T2 construct: expressed in transfected cells; host or cells: Flp-In 293
T2 sequence (Q13422 83-213 isoform Q13422-7 limits assumed): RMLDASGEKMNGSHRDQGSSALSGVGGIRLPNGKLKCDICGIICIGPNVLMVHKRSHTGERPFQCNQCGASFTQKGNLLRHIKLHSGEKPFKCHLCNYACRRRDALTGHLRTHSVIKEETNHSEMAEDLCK
T2 sequence (Q96SW2 whole entry partner, the tested form may be a part): as the sequence (Q96SW2 whole entry, the tested form may be a part) above
T2 sequence (Q16531 2-1140 partner limits assumed): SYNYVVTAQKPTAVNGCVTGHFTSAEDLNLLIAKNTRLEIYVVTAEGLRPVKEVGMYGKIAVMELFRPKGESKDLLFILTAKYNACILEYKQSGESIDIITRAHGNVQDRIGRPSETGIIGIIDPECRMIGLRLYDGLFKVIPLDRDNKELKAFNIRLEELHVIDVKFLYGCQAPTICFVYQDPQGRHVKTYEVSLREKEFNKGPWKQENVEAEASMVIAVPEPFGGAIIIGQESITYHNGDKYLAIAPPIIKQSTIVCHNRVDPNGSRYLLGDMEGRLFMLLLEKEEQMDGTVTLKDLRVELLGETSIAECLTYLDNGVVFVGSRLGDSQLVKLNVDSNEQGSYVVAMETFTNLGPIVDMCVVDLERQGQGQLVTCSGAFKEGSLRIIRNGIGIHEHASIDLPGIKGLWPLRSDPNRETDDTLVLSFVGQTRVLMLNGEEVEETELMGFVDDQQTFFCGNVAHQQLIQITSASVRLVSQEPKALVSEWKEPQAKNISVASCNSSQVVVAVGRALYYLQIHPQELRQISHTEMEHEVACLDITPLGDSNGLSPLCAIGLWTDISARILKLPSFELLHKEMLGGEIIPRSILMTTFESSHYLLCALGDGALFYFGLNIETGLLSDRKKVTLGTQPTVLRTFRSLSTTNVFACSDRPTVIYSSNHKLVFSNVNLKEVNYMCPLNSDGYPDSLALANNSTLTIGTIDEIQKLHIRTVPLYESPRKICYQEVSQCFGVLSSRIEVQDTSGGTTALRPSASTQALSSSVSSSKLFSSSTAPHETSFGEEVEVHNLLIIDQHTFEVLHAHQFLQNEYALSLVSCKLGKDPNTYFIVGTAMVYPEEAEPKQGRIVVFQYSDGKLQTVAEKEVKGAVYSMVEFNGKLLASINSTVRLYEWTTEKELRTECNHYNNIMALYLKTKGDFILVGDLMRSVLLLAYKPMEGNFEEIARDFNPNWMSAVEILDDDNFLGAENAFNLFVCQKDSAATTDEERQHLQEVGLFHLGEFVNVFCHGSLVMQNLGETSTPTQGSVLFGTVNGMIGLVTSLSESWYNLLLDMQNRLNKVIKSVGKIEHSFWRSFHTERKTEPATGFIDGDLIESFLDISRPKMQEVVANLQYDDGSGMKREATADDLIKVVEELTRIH
Method: as §1, §2, §3

[1] = compound concentration 6.6667E−05
[2] = compound concentration 6.6667E−06
[3] = compound concentration 6.6667E−07 (667 nM)
[4] = compound concentration 2.00E−05
[5] = compound concentration 2.00E−06
[6] = compound concentration 2.00E−07

T1 sequence (Q96SW2 whole entry): as the sequence (Q96SW2 whole entry, the tested form may be a part) above
T1 sequence (Q9UKS7 whole entry): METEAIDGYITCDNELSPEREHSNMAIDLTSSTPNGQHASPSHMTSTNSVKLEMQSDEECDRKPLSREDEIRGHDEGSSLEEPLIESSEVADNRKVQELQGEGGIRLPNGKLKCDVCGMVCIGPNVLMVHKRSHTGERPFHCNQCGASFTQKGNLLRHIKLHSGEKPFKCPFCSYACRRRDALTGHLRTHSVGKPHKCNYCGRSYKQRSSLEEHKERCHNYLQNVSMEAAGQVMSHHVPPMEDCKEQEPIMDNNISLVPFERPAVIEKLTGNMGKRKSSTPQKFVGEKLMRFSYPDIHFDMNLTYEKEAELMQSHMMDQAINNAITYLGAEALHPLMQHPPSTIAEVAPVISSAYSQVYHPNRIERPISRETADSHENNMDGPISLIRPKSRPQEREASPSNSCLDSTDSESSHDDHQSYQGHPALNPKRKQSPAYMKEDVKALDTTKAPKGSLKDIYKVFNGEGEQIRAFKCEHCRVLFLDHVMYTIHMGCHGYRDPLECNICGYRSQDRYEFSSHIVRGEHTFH

SMILES	TR-FRET-IKZF2 (Normalized to CC-885) (CRBN and Helios (IKZF2); [1])	TR-FRET-IKZF2 (Normalized to CC-885) (CRBN and Helios (IKZF2); [2])	TR-FRET-IKZF2 (Normalized to CC-885) (CRBN and Helios (IKZF2); [3])	IKZF2 GFP/RFP Relative Abundance (IKZF2; [4])	IKZF2 GFP/RFP Relative Abundance (IKZF2; [5])	IKZF2 GFP/RFP Relative Abundance (IKZF2; [6])	GSPT1 GFP/RFP Relative Abundance (GSPT1; [4])	GSPT1 GFP/RFP Relative Abundance (GSPT1; [5])	GSPT1 GFP/RFP Relative Abundance (GSPT1; [6])	IKZF1 GFP/RFP Relative Abundance (IKZF1; [4])	IKZF1 GFP/RFP Relative Abundance (IKZF1; [5])	IKZF1 GFP/RFP Relative Abundance (IKZF1; [6])	DC50 (IKZF2) [µM]	DC50 (GSPT1) [µM]	DC50 (IKZF1) [µM]	potency of IKZF2 degradation, in words (IKZF2; Table 3 summary)	degradation selectivity IKZF2/IKZF1 (IKZF2; from DC50 values of Table 3) [fold]	potency of IKZF1 degradation, in words (IKZF1; Table 3 summary)
Cc1ccc(NCc2cccc(NC3=CC(=O)N(C4CCC(=O)NC4=O)C3=O)c2)cc1Cl (stereo not drawn) [Compound 63, 3-(3-((3-(((3-chloro-4-methylphenyl)amino)methyl)-phenyl)amino)-2,5-dioxo-2,5-dihydro-1H-pyrrol-1-yl)piperidine-2,6-dione]	0.703	0.649	0.625	0.428	0.339	0.470	0.274	0.722	0.844	0.081	0.068	0.086	–	–	–	–	–	–
O=C1CCC(N2C(=O)C=C(Nc3cccc(CNC(=O)Nc4ccc(Cl)c(Cl)c4)c3)C2=O)C(=O)N1 (stereo not drawn) [Compound 59, 1-(3,4-dichlorophenyl)-3-(3-((1-(2,6-dioxopiperidin-3-yl)-2,5-dioxo-2,5-dihydro-1H-pyrrol-3-yl)amino)benzyl)urea]	1.224	1.165	1.035	0.099	0.072	0.108	0.247	0.734	0.952	0.144	0.097	0.066	–	–	–	–	–	–
O=C1CCC(N2C(=O)C=C(Nc3cccc(CCC(=O)Nc4cccc(C(F)(F)F)c4)c3)C2=O)C(=O)N1 (stereo not drawn) [Compound 148, 3-(3-((1-(2,6-dioxopiperidin-3-yl)-2,5-dioxo-2,5-dihydro-1H-pyrrol-3-yl)amino)phenyl)-N-(3-(trifluoromethyl)phenyl)propanamide]	–	–	–	–	–	–	–	–	–	–	–	–	0.013	> 1	0.0032	–	–	–
CCC(NC(=O)Nc1ccc(C)c(Cl)c1)c1cccc(NC2=CC(=O)N(C3CCC(=O)NC3=O)C2=O)c1 (stereo not drawn) [Compound 74, 1-(3-chloro-4-methylphenyl)-3-(1-(3-((1-(2,6-dioxopiperidin-3-yl)-2,5-dioxo-2,5-dihydro-1H-pyrrol-3-yl)amino)phenyl)propyl)urea]	2.010	1.914	1.817	0.021	0.033	0.032	–	–	–	0.096	0.090	0.114	0.0019	> 1	0.0078	most potent against IKZF2	~4	–
CC(NC(=O)Cc1cccc(C(F)(F)F)c1)c1cccc(NC2=CC(=O)N(C3CCC(=O)NC3=O)C2=O)c1 (stereo not drawn) [Compound 142, N-(1-(3-((1-(2,6-dioxopiperidin-3-yl)-2,5-dioxo-2,5-dihydro-1H-pyrrol-3-yl)amino)phenyl)ethyl)-2-(3-(trifluoromethyl)phenyl)acetamide]	–	–	–	–	–	–	–	–	–	–	–	–	0.016	> 1	0.016	–	–	–
Cc1ccc(NC(=O)COc2cccc(NC3=CC(=O)N(C4CCC(=O)NC4=O)C3=O)c2)cc1Cl (stereo not drawn) [Compound 125, N-(3-chloro-4-methylphenyl)-2-(3-((1-(2,6-dioxopiperidin-3-yl)-2,5-dioxo-2,5-dihydro-1H-pyrrol-3-yl)amino)phenoxy)acetamide]	–	–	–	–	–	–	–	–	–	–	–	–	0.024	> 1	0.0017	–	–	most potent against IKZF1
